Test results published in patent US20180153995A1, “USE OF ANTIMICROBIAL POLYMERS FOR RE-SENSITIZATION OF MICROORGANISMS UPON EMERGENCE OF RESISTANCE TO ANTI-MICROBIAL AGENTS” (Technion Research & Development Foundation Limited, priority 2008, published 2018).
Values joined by “and” are separate entries in the source; they are usually repeats but may differ in a detail not shown here. Equal values may be shown once. Read-outs that look alike come from different tables or passages of the source.

What was measured:
MRSA 15903 = assay: microbe, parasite or virus in culture; type: cell-based, Staphylococcus aureus
Summary of the method: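 Values are FIC indexes, summing each agent's MIC in combination divided by its MIC alone, for MRSA 15903. Interpretation: <0.5 clear re-sensitization, 0.5 to 4 marginal or none, >4 antagonistic.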

S. aureus 43300 = assay: Antibiotic MIC by microdilution with or without sub-MIC polymer; type: cell-based, Staphylococcus aureus
S. aureus 15877 = assay: as above; type: cell-based, Staphylococcus aureus
S. aureus 17314 = assay: as above; type: cell-based, Staphylococcus aureus
E. coli 14384 = assay: as above; type: cell-based, Escherichia coli
Summary of the method: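 After 24 h incubation at 37° C, proliferation measured by optical density at 620 nm against calibration standards. Bacteria seeded at 10^5 per ml into 2-fold dilution series of either polymer alone or antibiotic plus […].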

[1] = +½ MIC (3.12 μM) C12(5-ene)KKNC12KNH2

Cc1onc(-c2ccccc2)c1C(=O)N[C@@H]1C(=O)N2[C@@H]1SC(C)(C)[C@@H]2C(=O)O [Oxacillin, oxacillin]
MIC (MRSA 15903; MRSA 15903, +¼ polymer MIC (1.6 μM) NC12(KNC12K)2NH2): 256 µg/mL | MIC (MRSA 15903; MRSA 15903, +½ polymer MIC (3.1 μM) NC12(KNC12K)2NH2): 0.17 µg/mL | MIC (MRSA 15903; MRSA 15903, +⅓ polymer MIC (2.1 μM) NC12(KNC12K)2NH2): 0.34 µg/mL | MIC (MRSA 15903; MRSA 15903, antibiotic alone): 256 µg/mL | concentration up to which oxacillin alone is inactive (MRSA 15903; MRSA 15903, oxacillin alone): > 25 µM | MIC, ½ + MIC OAK (MRSA 15903; MRSA 15903, with C12K(KNC10K)3NH2 (SEQ ID NO: 10) at ½ of its MIC): 0.5 µg/mL | MIC, ⅓ + MIC OAK (MRSA 15903; MRSA 15903, with C12K(KNC10K)3NH2 (SEQ ID NO: 10) at ⅓ of its MIC): 16 to 64 µg/mL | MIC (MRSA 15903; S. aureus CI-15903, +polymer (¼ MIC) C12(5-ene)KKNC12KNH2): 64 µg/mL | MIC (MRSA 15903; S. aureus CI-15903, +polymer (½ MIC) C12(5-ene)KKNC12KNH2): 0.25 µg/mL | MIC (MRSA 15903; S. aureus CI-15903, +polymer (⅓ MIC) C12(5-ene)KKNC12KNH2): 4 µg/mL | MIC (MRSA 15903; S. aureus CI-15903, alone): 256 µg/mL | MIC (MRSA 15903; Staphylococcus aureus, MRSA, 24 h): 256 µg/mL | MIC (MRSA 15903; Staphylococcus aureus, MRSA, read-out: MIC of oxacillin): 256 µg/mL | MIC (MRSA 15903; Staphylococcus aureus, MRSA, read-out: MIC of oxacillin, MRSA 15903, + ½ MIC NC12(KNC12K)2NH2): 0.4 µM | MIC (MRSA 15903; Staphylococcus aureus, MRSA, read-out: MIC of oxacillin, MRSA 15903, + ½ MIC NC12(KNC12K)2NH2 (text)): 0.17 µg/mL | MIC (MRSA 15903; Staphylococcus aureus, MRSA, read-out: MIC of oxacillin, MRSA 15903, + ⅓ MIC NC12(KNC12K)2NH2): 0.8 µM | MIC (MRSA 15903; Staphylococcus aureus, MRSA, read-out: MIC of oxacillin, MRSA 15903, + ⅓ MIC NC12(KNC12K)2NH2 (text)): 0.34 µg/mL | MIC (MRSA 15903; Staphylococcus aureus, MRSA, read-out: MIC of oxacillin, MRSA 15903, oxacillin alone): 576 µM | Antibiotic MIC (S. aureus 43300; +¼ MIC (1.6 μM) C14(9-ene)KKNC12KNH2): 0.25 to 0.5 µg/mL | Antibiotic MIC (S. aureus 43300; [1]): 0.06 µg/mL | Antibiotic MIC (S. aureus 43300; +½ MIC (3.12 μM) C14(9-ene)KKNC12KNH2): 0.25 µg/mL | Antibiotic MIC (S. aureus 43300; +⅓ MIC (2.1 μM) C14(9-ene)KKNC12KNH2): 0.25 µg/mL | Antibiotic MIC (S. aureus 43300; no polymer (None), Table 8): 0.5 to 1 µg/mL | Antibiotic MIC (S. aureus 43300; no polymer (None), Table 9): 0.5 µg/mL | Antibiotic MIC (S. aureus 43300; no polymer (None), Table 10): 0.5 to 1 µg/mL | Antibiotic MIC (S. aureus 43300; no polymer (None), Table 11): 0.5 µg/mL | Antibiotic MIC (S. aureus 43300; no polymer (None), Table 12): 0.5 µg/mL | Antibiotic MIC (S. aureus 15877; [1]): 16 µg/mL | Antibiotic MIC (S. aureus 15877; +⅓ MIC (2.1 μM) C12(5-ene)KKNC12KNH2): 32 µg/mL | Antibiotic MIC (S. aureus 17314): 0.125 to 0.25 µg/mL | Antibiotic MIC (S. aureus 17314; S. aureus 17314, +¼ MIC (1.6 μM) C12K(KNC12K)2NH2): 0.125 to 0.25 µg/mL | Antibiotic MIC (S. aureus 17314; S. aureus 17314, +¼ MIC (1.6 μM) C12KKNC12KNH2): 0.25 µg/mL | Antibiotic MIC (S. aureus 17314; S. aureus 17314, +¼ MIC (1.6 μM) C16(9-ene)KKNC12KNH2): 0.25 µg/mL | Antibiotic MIC (S. aureus 17314; S. aureus 17314, +½ MIC (3.12 μM) C12K(KNC12K)2NH2): 0.125 to 0.25 µg/mL | Antibiotic MIC (S. aureus 17314; S. aureus 17314, +½ MIC (3.12 μM) C12KKNC12KNH2): 0.25 µg/mL | Antibiotic MIC (S. aureus 17314; S. aureus 17314, +½ MIC (3.12 μM) C16(9-ene)KKNC12KNH2): 0.06 µg/mL | Antibiotic MIC (S. aureus 17314; S. aureus 17314, +⅓ MIC (2.1 μM) C12K(KNC12K)2NH2): 0.125 to 0.25 µg/mL | Antibiotic MIC (S. aureus 17314; S. aureus 17314, +⅓ MIC (2.1 μM) C12KKNC12KNH2): 0.25 µg/mL | Antibiotic MIC (S. aureus 17314; S. aureus 17314, +⅓ MIC (2.1 μM) C16(9-ene)KKNC12KNH2): 0.25 µg/mL | Antibiotic MIC (S. aureus 17314; S. aureus 17314, no polymer (None), Table 9): 0.25 µg/mL | Antibiotic MIC (S. aureus 17314; S. aureus 17314, no polymer (None), Table 10): 0.25 to 0.5 µg/mL | Antibiotic MIC (S. aureus 17314; S. aureus 17314, no polymer (None), Table 11): 0.25 µg/mL | Antibiotic MIC (S. aureus 17314; S. aureus 17314, no polymer (None), Table 12): 0.25 µg/mL | Antibiotic MIC (E. coli 14384): 256 µg/mL and >512 µg/mL | Antibiotic MIC (E. coli 14384; E. coli 14384, +½ MIC C12K(NC8K)5NH2): 256 to 512 µg/mL | Antibiotic MIC, None (E. coli 14384; E. coli 14384, antibiotic alone (Table 15)): >512 µg/mL | Antibiotic MIC (E. coli 14384; E. coli 14384, no polymer (None), Table 9): >512 µg/mL | Antibiotic MIC (E. coli 14384; E. coli 14384, no polymer (None), Table 14): >512 µg/mL | Antibiotic MIC in presence of C12K(NC8K)7NH2 (SEQ ID NO: 4), +¼ MIC (E. coli 14384; E. coli 14384, polymer at ¼ of its MIC): >512 µg/mL
